This is an account of results in publication PMC8999625, “Antiviral Effects of ABMA and DABMA against Influenza Virus In Vitro and In Vivo via Regulating the Endolysosomal Pathway and Autophagy” (International Journal of Molecular Sciences, 2022).

Structures are written as SMILES. Entries after “also recorded” stand apart in the source; their conditions may differ. Counter-ions that a name gives are not always drawn. A value given as a limit tells only on which side of the number the result lay.

The subject of the first assay is A/HK/2671/2019 (H3N2). In kind it is cell-based, influenza virus.
Conditions: not given
On to `NC12CC3CC(CC(C3)C1)C2` [Amantadine, Amantadine hydrochloride], for which the “antiviral activity against A/HK/2671/2019 (H3N2)” value is recorded as “did not show antiviral activity; also recorded: no significant protection”.

The same assay, now with this note: read-out: EC50 ± SD A/HK/2671/2019 (H3N2).
Regarding `CCOC(=O)C1=C[C@@H](OC(CC)CC)[C@H](NC(C)=O)[C@@H](N)C1` [Oseltamivir, Oseltamivir phosphate], the EC50 worked out at 1790 ± 640 nM. Same read-out and setting: to `COc1ccc(Br)cc1CNC12CC3CC(C)(CC(C)(C3)C1)C2` [DABMA, 1,3-dimethyl-1-adamantyl (5-bromo-2-methoxybenzyl) amine] belongs 2950 ± 270 nM; to `NC12CC3CC(CC(C3)C1)C2` [Amantadine, Amantadine hydrochloride], over 100000 nM; to `NC(=O)c1ncn([C@@H]2O[C@H](CO)[C@@H](O)[C@H]2O)n1` [Ribavirin, ribavirin], 19800 ± 3260 nM. On the same count and under the same terms, to `COc1ccc(Br)cc1CNC12CC3CC(CC(C3)C1)C2` [ABMA, 1-adamantyl (5-bromo-2-methoxybenzyl) amine] belongs 2830 ± 260 nM.
